According to patent US9708314B2, “Heterocyclic amide compound” (NISSAN CHEMICAL INDUSTRIES, LTD., priority 2013, dated 2017):

Experiments:
Assay type in all cases: in vivo
[1] = test system: directly sowed Oryza sativa; assay: Test Example 3: effect on crop by application to foliage (Wagner pot, water depth 0.1-0.5 cm); details: Nineteenth Table; application to foliage; application herbicide amount 320 g/ha
Outline: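 Grading uses six bands of herbicidal ratio, from 0 (≤5%, almost no effect) to 5 (≥90%, almost completely withered). Treatment was a stem-and-leaf spray of diluted emulsion at a fixed g/ha on 14-day-old plants; evaluation after three weeks.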

[2] = test system: transplanted Oryza sativa; assay: Test Example 1: effect on crop, application before weed generation in submerged conditions; details: Seventeenth Table; for a: transplanted Oryza sativa (effect on crop grade): Application herbicide amount 320 g/ha; for a (transplanted Oryza sativa) effect on crop grade: application herbicide amount 320 g/ha
Outline: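 Alluvial soil in Wagner pots flooded to 4 cm water depth; weed seeds sown and 2.5 leaf stage rice seedlings transplanted. Emulsion diluted in water applied to water surface on sowing day at stated g/ha. Greenhouse 25° C. to 30° C.; effects scored 0–5 by herbicidal ratio after three weeks.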

[3] = test system: Echinochloa crus-galli var. crus-galli; assay: Test Example 4: herbicidal effect by application to foliage (diluvial soil, plastic box); details: application to foliage, 320 g/ha
Outline: (§1)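 Scores run from 0 (herbicidal ratio ≤5%) to 5 (≥90%, almost fully withered) and were assessed three weeks after foliar spraying. Seedlings had been raised for 14 days at 25-30° C in sterilized diluvial soil before treatment, with the emulsion diluted in water to the stated g/ha dose.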

Chenopodium album = assay: as above; details: application to foliage, 320 g/ha
Outline: as §1

Lolium multiflorum Lam. = assay: as above; details: application to foliage, 320 g/ha
Outline: as §1

Abutilon theophrasti = assay: as above; details: application to foliage, 320 g/ha
Outline: as §1

Avena fatua = assay: as above; details: application to foliage, 320 g/ha
Outline: as §1

Amaranthus retroflexus = assay: as above; details: application to foliage, 320 g/ha
Outline: as §1

Apera spica-venti. = assay: as above; details: application to foliage, 320 g/ha
Outline: as §1

## CN(c1nnc2c(C(=O)Nc3nnnn3C)ccc(C(F)(F)F)n12)C1CCCCC1 [2-083]
[1]
  b (effect on crop grade): 0 (Herbicidal ratio of 5% or less (almost no effect))
[2]
  a: transplanted Oryza sativa (effect on crop grade): 2 (Herbicidal ratio of 20% or more and less than 40%)
[3]
  herbicidal effect, H (Echinochloa crus-galli var. crus-galli): 5 (Herbicidal ratio of 90% or more (almost completely withered))
Chenopodium album
  herbicidal effect, O (Chenopodium album): 5 (Herbicidal ratio of 90% or more (almost completely withered))
Lolium multiflorum Lam.
  herbicidal effect, K (Lolium multiflorum Lam.): 1 (Herbicidal ratio of 5% or more and less than 20%)
Abutilon theophrasti
  herbicidal effect, M (Abutilon theophrasti): 5 (Herbicidal ratio of 90% or more (almost completely withered))
Avena fatua
  herbicidal effect, I (Avena fatua): 2 (Herbicidal ratio of 20% or more and less than 40%)
Amaranthus retroflexus
  herbicidal effect, N (Amaranthus retroflexus): 5 (Herbicidal ratio of 90% or more (almost completely withered))
Apera spica-venti.
  herbicidal effect, L (Apera spica-venti.): 1 (Herbicidal ratio of 5% or more and less than 20%)

## Cn1nnnc1NC(=O)c1ccc(C(F)(F)F)n2c(SCC3CC3)nnc12 [2-084]
[1]
  b (effect on crop grade): 5 (Herbicidal ratio of 90% or more (almost completely withered))
[2]
  a: transplanted Oryza sativa (effect on crop grade): 4 (Herbicidal ratio of 70% or more and less than 90%)
[3]
  herbicidal effect, H (Echinochloa crus-galli var. crus-galli): 5 (Herbicidal ratio of 90% or more (almost completely withered))
Chenopodium album
  herbicidal effect, O (Chenopodium album): 5 (Herbicidal ratio of 90% or more (almost completely withered))
Lolium multiflorum Lam.
  herbicidal effect, K (Lolium multiflorum Lam.): 3 (Herbicidal ratio of 40% or more and less than 70%)
Abutilon theophrasti
  herbicidal effect, M (Abutilon theophrasti): 5 (Herbicidal ratio of 90% or more (almost completely withered))
Avena fatua
  herbicidal effect, I (Avena fatua): 4 (Herbicidal ratio of 70% or more and less than 90%)
Amaranthus retroflexus
  herbicidal effect, N (Amaranthus retroflexus): 5 (Herbicidal ratio of 90% or more (almost completely withered))
Apera spica-venti.
  herbicidal effect, L (Apera spica-venti.): 4 (Herbicidal ratio of 70% or more and less than 90%)

## Cn1nnnc1NC(=O)c1ccc(C(F)(F)F)n2c(SCC3CCCO3)nnc12 (stereo not drawn) [2-085]
[1]
  b (effect on crop grade): 4 (Herbicidal ratio of 70% or more and less than 90%)
[2]
  a: transplanted Oryza sativa (effect on crop grade): 1 (Herbicidal ratio of 5% or more and less than 20%)
[3]
  herbicidal effect, H (Echinochloa crus-galli var. crus-galli): 5 (Herbicidal ratio of 90% or more (almost completely withered))
Chenopodium album
  herbicidal effect, O (Chenopodium album): 5 (Herbicidal ratio of 90% or more (almost completely withered))
Lolium multiflorum Lam.
  herbicidal effect, K (Lolium multiflorum Lam.): 3 (Herbicidal ratio of 40% or more and less than 70%)
Abutilon theophrasti
  herbicidal effect, M (Abutilon theophrasti): 5 (Herbicidal ratio of 90% or more (almost completely withered))
Avena fatua
  herbicidal effect, I (Avena fatua): 4 (Herbicidal ratio of 70% or more and less than 90%)
Amaranthus retroflexus
  herbicidal effect, N (Amaranthus retroflexus): 5 (Herbicidal ratio of 90% or more (almost completely withered))
Apera spica-venti.
  herbicidal effect, L (Apera spica-venti.): 4 (Herbicidal ratio of 70% or more and less than 90%)

## Cn1nnnc1NC(=O)c1ccc(C(F)(F)F)n2c(SCC#N)nnc12 [2-086]
[1]
  b (effect on crop grade): 3 (Herbicidal ratio of 40% or more and less than 70%)
[2]
  a: transplanted Oryza sativa (effect on crop grade): 0 (Herbicidal ratio of 5% or less (almost no effect))
[3]
  herbicidal effect, H (Echinochloa crus-galli var. crus-galli): 5 (Herbicidal ratio of 90% or more (almost completely withered))
Chenopodium album
  herbicidal effect, O (Chenopodium album): 5 (Herbicidal ratio of 90% or more (almost completely withered))
Lolium multiflorum Lam.
  herbicidal effect, K (Lolium multiflorum Lam.): 2 (Herbicidal ratio of 20% or more and less than 40%)
Abutilon theophrasti
  herbicidal effect, M (Abutilon theophrasti): 5 (Herbicidal ratio of 90% or more (almost completely withered))
Avena fatua
  herbicidal effect, I (Avena fatua): 3 (Herbicidal ratio of 40% or more and less than 70%)
Amaranthus retroflexus
  herbicidal effect, N (Amaranthus retroflexus): 5 (Herbicidal ratio of 90% or more (almost completely withered))
Apera spica-venti.
  herbicidal effect, L (Apera spica-venti.): 4 (Herbicidal ratio of 70% or more and less than 90%)

## Cn1nnnc1NC(=O)c1ccc(C(F)(F)F)n2c(SCC(F)(F)F)nnc12 [2-087]
[1]
  b (effect on crop grade): 3 (Herbicidal ratio of 40% or more and less than 70%)
[2]
  a: transplanted Oryza sativa (effect on crop grade): 3 (Herbicidal ratio of 40% or more and less than 70%)
[3]
  herbicidal effect, H (Echinochloa crus-galli var. crus-galli): 5 (Herbicidal ratio of 90% or more (almost completely withered))
Chenopodium album
  herbicidal effect, O (Chenopodium album): 5 (Herbicidal ratio of 90% or more (almost completely withered))
Lolium multiflorum Lam.
  herbicidal effect, K (Lolium multiflorum Lam.): 3 (Herbicidal ratio of 40% or more and less than 70%)
Abutilon theophrasti
  herbicidal effect, M (Abutilon theophrasti): 5 (Herbicidal ratio of 90% or more (almost completely withered))
Avena fatua
  herbicidal effect, I (Avena fatua): 4 (Herbicidal ratio of 70% or more and less than 90%)
Amaranthus retroflexus
  herbicidal effect, N (Amaranthus retroflexus): 4 (Herbicidal ratio of 70% or more and less than 90%)
Apera spica-venti.
  herbicidal effect, L (Apera spica-venti.): 4 (Herbicidal ratio of 70% or more and less than 90%)

## CCN(CC)c1nnc2c(C(=O)Nc3nnnn3C)ccc(C(F)(F)F)n12 [2-089]
[1]
  b (effect on crop grade): 2 (Herbicidal ratio of 20% or more and less than 40%)
[2]
  a: transplanted Oryza sativa (effect on crop grade): 4 (Herbicidal ratio of 70% or more and less than 90%)
[3]
  herbicidal effect, H (Echinochloa crus-galli var. crus-galli): 4 (Herbicidal ratio of 70% or more and less than 90%)
Chenopodium album
  herbicidal effect, O (Chenopodium album): 5 (Herbicidal ratio of 90% or more (almost completely withered))
Lolium multiflorum Lam.
  herbicidal effect, K (Lolium multiflorum Lam.): 1 (Herbicidal ratio of 5% or more and less than 20%)
Abutilon theophrasti
  herbicidal effect, M (Abutilon theophrasti): 4 (Herbicidal ratio of 70% or more and less than 90%)
Avena fatua
  herbicidal effect, I (Avena fatua): 1 (Herbicidal ratio of 5% or more and less than 20%)
Amaranthus retroflexus
  herbicidal effect, N (Amaranthus retroflexus): 4 (Herbicidal ratio of 70% or more and less than 90%)
Apera spica-venti.
  herbicidal effect, L (Apera spica-venti.): 4 (Herbicidal ratio of 70% or more and less than 90%)

## COc1ccc(N(C)c2nnc3c(C(=O)Nc4nnnn4C)ccc(C(F)(F)F)n23)cc1 [2-099]
[1]
  b (effect on crop grade): 4 (Herbicidal ratio of 70% or more and less than 90%)
[2]
  a (transplanted Oryza sativa) effect on crop grade: 4 (Herbicidal ratio of 70% or more and less than 90%)
[3]
  herbicidal effect, H (Echinochloa crus-galli var. crus-galli): 5 (Herbicidal ratio of 90% or more (almost completely withered))
Chenopodium album
  herbicidal effect, O (Chenopodium album): 5 (Herbicidal ratio of 90% or more (almost completely withered))
Lolium multiflorum Lam.
  herbicidal effect, K (Lolium multiflorum Lam.): 1 (Herbicidal ratio of 5% or more and less than 20%)
Abutilon theophrasti
  herbicidal effect, M (Abutilon theophrasti): 4 (Herbicidal ratio of 70% or more and less than 90%)
Avena fatua
  herbicidal effect, I (Avena fatua): 2 (Herbicidal ratio of 20% or more and less than 40%)
Amaranthus retroflexus
  herbicidal effect, N (Amaranthus retroflexus): 4 (Herbicidal ratio of 70% or more and less than 90%)
Apera spica-venti.
  herbicidal effect, L (Apera spica-venti.): 1 (Herbicidal ratio of 5% or more and less than 20%)

## C=CCN(C)c1nnc2c(C(=O)Nc3nnnn3C)ccc(C(F)(F)F)n12 [2-100]
[1]
  b (effect on crop grade): 3 (Herbicidal ratio of 40% or more and less than 70%)
[2]
  a (transplanted Oryza sativa) effect on crop grade: 3 (Herbicidal ratio of 40% or more and less than 70%)
[3]
  herbicidal effect, H (Echinochloa crus-galli var. crus-galli): 5 (Herbicidal ratio of 90% or more (almost completely withered))
Chenopodium album
  herbicidal effect, O (Chenopodium album): 5 (Herbicidal ratio of 90% or more (almost completely withered))
Lolium multiflorum Lam.
  herbicidal effect, K (Lolium multiflorum Lam.): 3 (Herbicidal ratio of 40% or more and less than 70%)
Abutilon theophrasti
  herbicidal effect, M (Abutilon theophrasti): 5 (Herbicidal ratio of 90% or more (almost completely withered))
Avena fatua
  herbicidal effect, I (Avena fatua): 3 (Herbicidal ratio of 40% or more and less than 70%)
Amaranthus retroflexus
  herbicidal effect, N (Amaranthus retroflexus): 5 (Herbicidal ratio of 90% or more (almost completely withered))
Apera spica-venti.
  herbicidal effect, L (Apera spica-venti.): 4 (Herbicidal ratio of 70% or more and less than 90%)

## COCCSc1nnc2c(C(=O)Nc3nnnn3C)ccc(C(F)(F)F)n12 [2-101]
[1]
  b (effect on crop grade): 4 (Herbicidal ratio of 70% or more and less than 90%)
[2]
  a (transplanted Oryza sativa) effect on crop grade: 3 (Herbicidal ratio of 40% or more and less than 70%)
[3]
  herbicidal effect, H (Echinochloa crus-galli var. crus-galli): 5 (Herbicidal ratio of 90% or more (almost completely withered))
Chenopodium album
  herbicidal effect, O (Chenopodium album): 5 (Herbicidal ratio of 90% or more (almost completely withered))
Lolium multiflorum Lam.
  herbicidal effect, K (Lolium multiflorum Lam.): 3 (Herbicidal ratio of 40% or more and less than 70%)
Abutilon theophrasti
  herbicidal effect, M (Abutilon theophrasti): 5 (Herbicidal ratio of 90% or more (almost completely withered))
Avena fatua
  herbicidal effect, I (Avena fatua): 3 (Herbicidal ratio of 40% or more and less than 70%)
Amaranthus retroflexus
  herbicidal effect, N (Amaranthus retroflexus): 5 (Herbicidal ratio of 90% or more (almost completely withered))
Apera spica-venti.
  herbicidal effect, L (Apera spica-venti.): 4 (Herbicidal ratio of 70% or more and less than 90%)

## C=CCSc1nnc2c(C(=O)Nc3nnnn3C)ccc(C(F)(F)F)n12 [2-102]
[1]
  b (effect on crop grade): 1 (Herbicidal ratio of 5% or more and less than 20%)
[2]
  a (transplanted Oryza sativa) effect on crop grade: 1 (Herbicidal ratio of 5% or more and less than 20%)
[3]
  herbicidal effect, H (Echinochloa crus-galli var. crus-galli): 5 (Herbicidal ratio of 90% or more (almost completely withered))
Chenopodium album
  herbicidal effect, O (Chenopodium album): 5 (Herbicidal ratio of 90% or more (almost completely withered))
Lolium multiflorum Lam.
  herbicidal effect, K (Lolium multiflorum Lam.): 1 (Herbicidal ratio of 5% or more and less than 20%)
Abutilon theophrasti
  herbicidal effect, M (Abutilon theophrasti): 5 (Herbicidal ratio of 90% or more (almost completely withered))
Avena fatua
  herbicidal effect, I (Avena fatua): 1 (Herbicidal ratio of 5% or more and less than 20%)
Amaranthus retroflexus
  herbicidal effect, N (Amaranthus retroflexus): 5 (Herbicidal ratio of 90% or more (almost completely withered))
Apera spica-venti.
  herbicidal effect, L (Apera spica-venti.): 3 (Herbicidal ratio of 40% or more and less than 70%)
